Patent US10004688B2, “Liposomal mupirocin” (priority 2014, dated 2018)
In brackets after ≈: the same amount, converted by molar mass.

Columns and labels:
[1] = test system: gram-positive bacteria, including the methicillin-resistant Staphylococcus aureus (MRSA) and Streptococcus pneumoniae; details: gram-positive bacteria incl. MRSA and Streptococcus pneumoniae; cited from earlier work
[2] = literature data, free mupirocin; cited from earlier work
[3] = test system: Group A streptococcus (GAS); experiment: Mice necrotizing fasciitis model; format: in vivo, Female BALB/c mice
Description: Necrotizing fasciitis model was performed based on a published method [Hidalgo-grass, C. et al. Mechanisms of disease Effect of a bacterial pheromone peptide on host chemokine degradation in group A streptococcal necrotising soft-tissue infections. 363, (2004)]. Specifically the working protocol included:
Female BALB/c mice, 10 g weight and at the age of 3-4 weeks were selected.
1st Day: Bacteria were seeded on blood-agar plates and incubated at 37° C. THY medium was prepared, autoclaved and kept at room temperature.
2nd Day: plates were taken from the incubator and placed at room temperature.
4th Day: bacteria were transferred from the plates to 5 ml THY tube (warmed in the incubator).
5th Day: 2 ml bacteria were transferred from the 5 ml THY tube to 50 ml THY tube. Bacteria were grown to early logarithmic phase (O.D600=0.3-0.4), washed with PBS and suspended in PBS to O.D600=0.8 which correlates to 10^8 bacteria in injected volume of 100 μl. The obtained bacteria volume was divided to vials according to the number of mice in the study. Each dilution was seeded on blood agar plates and counting colonies on the day after.
On the 5th day, mice hair was removed from the center of mice back and bacteria were injected subcutaneously.
Disease condition was followed according to the Table 2A below.
Specifically, Group A streptococcus (GAS) injection (0.75×10^8 CFU) was administered to all study groups. The drug was administered by IV injection of 100 μl formulation. Eachliposomal mupirocin dose was 45 mg/kg. Each free mupirocin dose was 50 mg/kg.

[4] = Mupirocin solubility in buffers and solubilizer solutions; format: physicochemical
Description: Liposomes were prepared using the calcium acetate (CA) gradient method [Clerc S, Barenholz Y. 1995. Loading of amphipathic weak acids into liposomes in response to transmembrane calcium acetate gradients. Biochim Biophys Acta 1240:257-265]. Specifically, lipids in a mole ratio of 55:40:5 HSPC: cholesterol: mPEG DSPE were mechanically hydrated by stirring at 65° C. with 200 mM calcium acetate pH 5.5, at a weight ratio of 1:9. The liposomal dispersion was downsized by stepwise extrusion by the Northern Lipids (Burnaby, BC, Canada) extruder using polycarbonate filters starting with 3 times extrusion through a 400 nm pore size membrane, then 3 times through a 100 nm pore size membrane, and finally 10 times through a 50 nm pore size membrane. Liposomes were then dialyzed using a Cellu Sep regenerated cellulose membrane (Membrane Filtration Products, USA), against a 10% sucrose solution. In the case of HPCD-containing liposomes, lipids were hydrated by 200 mM calcium acetate pH 5.5 containing 15% (w/w) HPCD. Control HPCD liposomes were prepared by hydrating lipids with 15% (w/w) HPCD in phosphate buffer 200 mM pH 6.3. All other preparation steps (downsizing and dialysis) were the same as described above. Remote loading was performed by incubating at 65° C. for 10 min a solution of the drug with the liposome dispersion at a volume ratio of 1:1. Liposomes used for loading were freshly prepared and used within one week. Drug loading solutions were prepared in 200 mM phosphate buffer pH 6.3. High mupirocin concentrations in phosphate buffer pH 6.3 (28 mM) were achieved by vigorous stirring and 10 min sonication in a bath sonicator. Loading was also tested from 1 to 10% (w/w) HPCD solutions in phosphate buffer pH 6.3. High mupirocin concentration (28 mM) in 1% HPCD solution was achieved by vigorous stirring and sonication as described for phosphate buffer. Mupirocin solutions in higher HPCD concentrations (2.5-10%) were prepared by stirring only. Loading was also performed from propylene glycol (PG) and from polyethylene glycol (PEG) 400 solutions. In these cases, a stock solution of 100 mM mupirocin was prepared and diluted to the desired concentration with 200 mM phosphate buffer pH 6.3.
Mupirocin is not freely soluble in aqueous medium. Being a weak acid, its solubility increases with pH. Mupirocin was soluble in phosphate buffer 200 mM pH 6.3 up to a concentration of 15 mM. […] However, high concentrations (≥28 mM) in 1% HPCD required 10 min sonication in order to achieve a clear solution. It should be noted that the chromatographic profile of mupirocin in the different solutions tested was similar to that of a standard solution.

[5] = test system: Neisseria gonorrhoeae; details: cited from earlier work
[6] = test system: serum protein; details: cited from earlier work
[7] = group 2: free drug 50 mg/kg IV 3 h before and 3 and 24 h after GAS injection (150 mg/kg/day), 24 h after challenge
[8] = group 2: free drug 50 mg/kg IV 3 h before and 3 and 24 h after GAS injection (150 mg/kg/day), 48 h after challenge
[9] = group 2: free drug 50 mg/kg IV 3 h before and 3 and 24 h after GAS injection (150 mg/kg/day), 72 h after challenge
[10] = group 2: free drug 50 mg/kg IV 3 h before and 3 and 24 h after GAS injection (150 mg/kg/day), 96 h after challenge

C/C(=C\C(=O)OCCCCCCCCC(=O)O)C[C@@H]1OC[C@H](C[C@@H]2O[C@H]2[C@@H](C)[C@H](C)O)[C@@H](O)[C@H]1O [Mupirocin, 9-[(E)-4-[(2S,3R,4R,5S)-3,4-dihydroxy-5-[[(2S,3S)-3-[(2S,3S)-3-hydroxybutan-2-yl]oxiran-2-yl]methyl]oxan-2-yl]-3-methylbut-2-enoyl]oxynonanoic acid]
activity in vitro [1]: active in vitro
elimination half-life [2]: 20 to 40 min
% weight change ([3]; group 2: free drug 50 mg/kg IV 3 h before and 3 and 24 h after GAS injection (150 mg/kg/day), 24 h after bacteria challenge): −7%
Average mice weight [3, 7]: 12.5 g
Description of mice movement [3, 7]: Regular
Eyes appearance [3, 7]: Open eyes
Hair appearance [3, 7]: Rough hair
Mice mortality [3, 7]: 0
Wound appearance [3, 7]: No wound
Average mice weight [3, 8]: 11.7 g
Description of mice movement [3, 8]: Regular
Eyes appearance [3, 8]: Open eyes
Hair appearance [3, 8]: Rough hair
Mice mortality [3, 8]: 0
Average mice weight [3, 9]: 12.3 g
Description of mice movement [3, 9]: Regular
Eyes appearance [3, 9]: Open eyes
Mice mortality [3, 9]: 0
Average mice weight [3, 10]: 12.7 g
Description of mice movement [3, 10]: Regular
Eyes appearance [3, 10]: Open eyes
Mice mortality [3, 10]: 0
mortality ([3]; mice, GAS s.c. challenge, IV treatment): did not show mortality
development of disease / symptoms ([3]; mice, GAS s.c. challenge, IV treatment, listed as free drug): developed the disease 24 h after bacteria challenge
development of disease / symptoms ([3]; mice, GAS s.c. challenge, IV treatment, listed as free mupirocin): developed the disease symptoms
solubility ([4]; HPCD solution in phosphate buffer, aqueous with cosolvent or surfactant or cyclodextrin, thermodynamic from solid, HPCD solutions of 1-10% w/w in phosphate buffer pH 6.3): > 34 mM
solubility ([4]; PEG 400, organic solvent or mixture): ~100 mM
solubility ([4]; aqueous buffer, thermodynamic from solid, phosphate buffer 200 mM pH 6.3, without vigorous stirring and sonication): ≤ 15 mM
solubility at 10 min ([4]; aqueous buffer, thermodynamic from solid, phosphate buffer pH 6.3, after vigorous stirring and sonication): ~28 mM (≈ 14 mg/mL)
solubility ([4]; calcium acetate solution, aqueous buffer, calcium acetate 200 mM pH 5.5): < 2000 µg/mL
solubility ([4]; organic solvent or mixture, PG (propylene glycol)): ~100 mM
increase of solubility ([4]; pH 5.5): not more than 10 fold
MIC [5]: 0.05 µg/mL (≈ 0.0999 µM)
protein binding affinity [6]: 96.5%
